SMILES strings stand for the structures.

BTK, sequence (Q06187 whole entry): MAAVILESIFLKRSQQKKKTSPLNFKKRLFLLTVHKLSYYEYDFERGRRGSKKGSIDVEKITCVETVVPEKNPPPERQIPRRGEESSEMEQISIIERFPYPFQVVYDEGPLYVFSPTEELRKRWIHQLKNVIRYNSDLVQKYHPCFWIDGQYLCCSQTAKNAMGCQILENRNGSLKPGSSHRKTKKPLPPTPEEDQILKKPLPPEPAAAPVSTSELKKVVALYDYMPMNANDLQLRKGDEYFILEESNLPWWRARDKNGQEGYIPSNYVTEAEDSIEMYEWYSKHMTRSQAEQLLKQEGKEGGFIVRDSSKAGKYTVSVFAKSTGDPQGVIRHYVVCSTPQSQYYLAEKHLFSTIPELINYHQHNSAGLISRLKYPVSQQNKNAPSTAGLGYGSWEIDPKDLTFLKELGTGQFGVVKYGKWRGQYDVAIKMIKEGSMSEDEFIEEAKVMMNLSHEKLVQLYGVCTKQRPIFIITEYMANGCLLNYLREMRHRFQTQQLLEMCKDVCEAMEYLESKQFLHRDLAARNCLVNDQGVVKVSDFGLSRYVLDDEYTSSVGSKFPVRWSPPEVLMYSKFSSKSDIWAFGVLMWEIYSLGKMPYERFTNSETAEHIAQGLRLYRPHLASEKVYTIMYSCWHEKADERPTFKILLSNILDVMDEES

In the experiment the target is BTK (Homo sapiens (Human), UniProt Q06187). Put plainly: In Vitro BTK Kinase Assay: Btk-PolyGAT-LS Assay. It is filed as biochemical. The following applies: BTK enzyme 0.25 nM, ATP 10 μM, polyGAT 100 nM, 30 minutes incubation, TRF readout; read-out: IC50. The method, then:
The purpose of the BTK in vitro assay is to determine compound potency against BTK through the measurement of IC50. […] For a typical assay, a 24 μL aliquot of a ATP/peptide master mix (final concentration; ATP 10 μM, polyGAT 100 nM) in kinase buffer (10 mM Tris-HCl pH 7.5, 10 mM MgCl2, 200 μM Na3PO4, 5 mM DTT, 0.01% Triton X-100, and 0.2 mg/ml casein) is added to each well. […] The assay is incubated for 30 minutes before being stopped with 28 μL of a 50 mM EDTA solution. […] The plate is covered and incubated for 45 minutes at room temperature.
One may read the IC50 as the concentration that inhibits the measured activity by half. As to `C=CC(=O)N(C)[C@H]1C[C@@H](Oc2nc(-c3cnn(C)c3)cn3nc(N)cc23)C1` [Example 68, N-((cis)-3-((2-amino-6-(1-methyl-1H-pyrazol-4-yl)pyrazolo[1,5-a]pyrazin-4-yl)oxy)cyclobutyl)-N-methylacrylamide], the IC50 was less than 1 nM.

With `C=CC(=O)N1CCC[C@@H](Oc2nc(-c3ccccc3)cn3nccc23)CC1` [Example 73, (R)-1-(4-((6-phenylpyrazolo[1,5-a]pyrazin-4-yl)oxy)azepan-1-yl)prop-2-en-1-one], the IC50 lay within 1 to 10 nM.

In the case of `C=CC(=O)N1CCC[C@@H](Oc2nc(-c3cc(OC)ncn3)cn3nccc23)CC1` [Example 74, (R)-1-(4-((6-(6-methoxypyrimidin-4-yl)pyrazolo[1,5-a]pyrazin-4-yl)oxy)azepan-1-yl)prop-2-en-1-one], the half-inhibitory concentration (IC50) lay in the range of 10 to 1000 nM.

Regarding `C=CC(=O)N1CCC[C@@H](Oc2nc(-c3nc(C)co3)cn3nccc23)CC1` [Example 75, (R)-1-(4-((6-(4-methyloxazol-2-yl)pyrazolo[1,5-a]pyrazin-4-yl)oxy)azepan-1-yl)prop-2-en-1-one], the IC50 was 10 to 1000 nM.

For `C=CC(=O)N1CCC[C@@H](Oc2nc(-c3csc(C)n3)cn3nccc23)CC1` [Example 76, (R)-1-(4-((6-(2-methylthiazol-4-yl)pyrazolo[1,5-a]pyrazin-4-yl)oxy)azepan-1-yl)prop-2-en-1-one], the IC50 lay in the range of 1 to 10 nM.

Take `C=CC(=O)N1CCC[C@@H](Oc2nc(-c3cnc(C)s3)cn3nccc23)CC1` [Example 77, (R)-1-(4-((6-(2-methylthiazol-5-yl)pyrazolo[1,5-a]pyrazin-4-yl)oxy)azepan-1-yl)prop-2-en-1-one]: the half-inhibitory concentration (IC50) was less than 1 nM.

As for `C=CC(=O)N1CCC[C@@H](Oc2nc(-c3cc(C)ns3)cn3nccc23)CC1` [Example 78, (R)-1-(4-((6-(3-methylisothiazol-5-yl)pyrazolo[1,5-a]pyrazin-4-yl)oxy)azepan-1-yl)prop-2-en-1-one], the IC50 lay within 1 to 10 nM.

On to `C=CC(=O)N(C)[C@H]1C[C@@](C)(Oc2nc(-c3cn[nH]c3)cn3nccc23)C1` [Example 80, N-((1s,3s)-3-((6-(1H-pyrazol-4-yl)pyrazolo[1,5-a]pyrazin-4-yl)oxy)-3-methylcyclobutyl)-N-methylacrylamide], for which the IC50 was less than 1 nM.

`C=CC(=O)NC1CC2CC1CC2Oc1cc(-c2cnn(C)c2)cn2nccc12` (centres unmarked) [Example 82, N-(5-((6-(1-methyl-1H-pyrazol-4-yl)pyrazolo[1,5-a]pyridin-4-yl)oxy)bicyclo[2.2.1]heptan-2-yl)acrylamide]: the IC50 was 1 to 10 nM.

For `C=CC(=O)N1C[C@H](COc2cc(-c3cnn(C)c3)cn3nccc23)OC(C)(C)C1` [Example 83, (R)-1-(2,2-dimethyl-6-(((6-(1-methyl-1H-pyrazol-4-yl)pyrazolo[1,5-a]pyridin-4-yl)oxy)methyl)morpholino)prop-2-en-1-one], the IC50 lay in the range of 1 to 10 nM.

On to `C=CC(=O)NC1CN(c2cc(-c3cnn(C)c3)cn3nccc23)CC12CC2` (centres unmarked) [Example 87, N-(5-(6-(1-methyl-1H-pyrazol-4-yl)pyrazolo[1,5-a]pyridin-4-yl)-5-azaspiro[2.4]heptan-7-yl)acrylamide], for which the IC50 was 10 to 1000 nM.

For `C=CC(=O)N1CC2CC1CC2Nc1cc(-c2cnn(C)c2)cn2nccc12` (centres unmarked) [Example 88, 1-(5-((6-(1-methyl-1H-pyrazol-4-yl)pyrazolo[1,5-a]pyridin-4-yl)amino)-2-azabicyclo[2.2.1]heptan-2-yl)prop-2-en-1-one], the IC50 fell in the range of 1 to 10 nM.

For `C=CC(=O)NC1CN(c2cc(-c3cnn(C)c3)cn3nccc23)CC(F)(F)C1` (centres unmarked) [Example 89, N-(5,5-difluoro-1-(6-(1-methyl-1H-pyrazol-4-yl)pyrazolo[1,5-a]pyridin-4-yl)piperidin-3-yl)acrylamide], the IC50 fell in the range of 10 to 1000 nM.

In the case of `C=CC(=O)N1CCCN(Cc2nc(-c3cnn(C)c3)cn3nccc23)CC1` [Example 90, 1-(4-((6-(1-methyl-1H-pyrazol-4-yl)pyrazolo[1,5-a]pyrazin-4-yl)methyl)-1,4-diazepan-1-yl)prop-2-en-1-one], the IC50 fell in the range of 10 to 1000 nM.

The record behind these values is patent US20240083900A1, “PYRAZOLO[1,5-A]PYRAZINE DERIVATIVES AS BTK INHIBITORS” (BIOGEN MA INC., priority 2020, published 2024).
